ChEMBL document CHEMBL1143875, “Synthesis and structure-activity relationships of thiadiazole-derivatives as potent and orally active peroxisome proliferator-activated receptors alpha/delta dual agonists” (Bioorg Med Chem, 2008)
pEC50: −log10 of the molar value. Active and inactive are the calls of the source. The rule behind the calls is not given here.

What was measured:
[1] = Activity at retinoic acid receptor
[2] = biological target: T1, Peroxisome proliferator-activated receptor alpha (Homo sapiens) (UniProt Q07869); experiment: Agonist activity at human PPARalpha-Gal4 in HEK293 cells by luciferase reporter assay relative to (S)-2-{2-[1-ethyl-3-(4-trifluoro-methoxyphenyl)ureido]indan-5-ylsulfanyl}-2-methylpropionic acid; type: functional, cell-based
T1 sequence (whole entry): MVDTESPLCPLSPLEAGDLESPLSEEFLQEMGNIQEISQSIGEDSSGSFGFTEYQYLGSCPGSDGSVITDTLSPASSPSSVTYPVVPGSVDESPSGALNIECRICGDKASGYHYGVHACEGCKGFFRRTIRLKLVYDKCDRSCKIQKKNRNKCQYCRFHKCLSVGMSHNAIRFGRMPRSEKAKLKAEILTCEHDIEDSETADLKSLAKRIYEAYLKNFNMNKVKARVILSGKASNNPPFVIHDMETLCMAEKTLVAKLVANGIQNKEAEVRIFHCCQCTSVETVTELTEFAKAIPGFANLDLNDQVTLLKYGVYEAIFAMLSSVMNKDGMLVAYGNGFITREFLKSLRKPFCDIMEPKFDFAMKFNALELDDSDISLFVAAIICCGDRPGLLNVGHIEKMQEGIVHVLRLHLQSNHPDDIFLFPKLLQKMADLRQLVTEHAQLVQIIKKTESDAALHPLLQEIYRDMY

[3] = biological target: T2, Bile acid receptor (Homo sapiens) (UniProt Q96RI1); experiment: Activity at farnesoid X receptor
T2 sequence (whole entry): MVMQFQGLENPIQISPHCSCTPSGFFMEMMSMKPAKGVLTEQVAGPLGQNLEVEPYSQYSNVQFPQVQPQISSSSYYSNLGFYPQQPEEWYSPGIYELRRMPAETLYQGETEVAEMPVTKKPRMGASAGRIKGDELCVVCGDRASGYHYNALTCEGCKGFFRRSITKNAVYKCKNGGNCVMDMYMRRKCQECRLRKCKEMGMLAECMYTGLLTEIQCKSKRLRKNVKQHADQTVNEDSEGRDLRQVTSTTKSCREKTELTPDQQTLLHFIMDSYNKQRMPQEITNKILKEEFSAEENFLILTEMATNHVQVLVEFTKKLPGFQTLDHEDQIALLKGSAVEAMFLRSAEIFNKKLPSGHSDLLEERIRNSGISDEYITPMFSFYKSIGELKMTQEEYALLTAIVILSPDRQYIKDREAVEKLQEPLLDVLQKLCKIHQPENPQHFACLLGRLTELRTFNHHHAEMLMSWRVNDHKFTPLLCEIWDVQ

[4] = Activity at liver X receptor
[5] = Activity at retinoic acid X receptor
[6] = biological target: T3, Glucocorticoid receptor (Homo sapiens) (UniProt P04150); experiment: Activity at glucocorticoid receptor
T3 sequence (whole entry): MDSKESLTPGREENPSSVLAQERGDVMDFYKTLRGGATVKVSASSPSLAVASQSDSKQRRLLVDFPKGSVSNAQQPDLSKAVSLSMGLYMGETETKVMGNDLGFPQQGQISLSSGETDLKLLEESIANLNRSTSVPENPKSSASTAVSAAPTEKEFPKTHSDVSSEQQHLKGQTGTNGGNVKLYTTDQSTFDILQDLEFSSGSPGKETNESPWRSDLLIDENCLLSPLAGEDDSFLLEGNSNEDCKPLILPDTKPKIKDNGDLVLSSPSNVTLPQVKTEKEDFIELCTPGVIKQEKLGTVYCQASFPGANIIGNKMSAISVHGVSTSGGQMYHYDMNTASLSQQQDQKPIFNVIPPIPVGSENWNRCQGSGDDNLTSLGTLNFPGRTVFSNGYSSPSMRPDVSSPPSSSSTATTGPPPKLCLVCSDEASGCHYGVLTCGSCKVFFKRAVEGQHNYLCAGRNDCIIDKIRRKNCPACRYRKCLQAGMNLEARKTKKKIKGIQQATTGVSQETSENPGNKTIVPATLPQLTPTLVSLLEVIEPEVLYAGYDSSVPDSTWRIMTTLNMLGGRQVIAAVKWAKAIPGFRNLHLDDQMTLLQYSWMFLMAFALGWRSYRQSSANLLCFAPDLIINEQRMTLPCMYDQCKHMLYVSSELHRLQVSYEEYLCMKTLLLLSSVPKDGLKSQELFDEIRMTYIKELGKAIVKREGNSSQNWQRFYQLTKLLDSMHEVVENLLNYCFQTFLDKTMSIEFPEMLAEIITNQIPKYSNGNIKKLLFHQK

[7] = biological target: T4, Peroxisome proliferator-activated receptor delta (Homo sapiens, UniProt Q03181); experiment: Agonist activity at human PPARdelta-Gal4 in HEK293 cells by luciferase reporter assay; type: functional, cell-based
T4 sequence (Q03181 whole entry): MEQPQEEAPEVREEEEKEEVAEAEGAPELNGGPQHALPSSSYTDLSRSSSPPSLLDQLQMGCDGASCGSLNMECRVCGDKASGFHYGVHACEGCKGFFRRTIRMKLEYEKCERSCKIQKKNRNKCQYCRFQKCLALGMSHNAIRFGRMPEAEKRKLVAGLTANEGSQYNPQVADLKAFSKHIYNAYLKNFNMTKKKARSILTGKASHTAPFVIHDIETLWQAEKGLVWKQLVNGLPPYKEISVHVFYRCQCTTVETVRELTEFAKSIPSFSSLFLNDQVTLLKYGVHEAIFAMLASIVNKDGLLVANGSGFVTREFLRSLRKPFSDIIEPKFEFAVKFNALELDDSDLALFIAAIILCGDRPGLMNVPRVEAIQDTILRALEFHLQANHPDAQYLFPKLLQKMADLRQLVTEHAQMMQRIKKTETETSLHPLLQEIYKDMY

[8] = biological target: T5, Peroxisome proliferator-activated receptor alpha (Homo sapiens, UniProt Q07869); experiment: Agonist activity at human PPARalpha-Gal4 in HEK293 cells by luciferase reporter assay; type: functional, cell-based
T5 sequence (Q07869 whole entry): T1 sequence (whole entry)

[9] = biological target: T6, Peroxisome proliferator-activated receptor gamma (Homo sapiens, UniProt P37231); experiment: Agonist activity at human PPARgamma-Gal4 in HEK293 cells by luciferase reporter assay; type: functional, cell-based
T6 sequence (P37231 whole entry): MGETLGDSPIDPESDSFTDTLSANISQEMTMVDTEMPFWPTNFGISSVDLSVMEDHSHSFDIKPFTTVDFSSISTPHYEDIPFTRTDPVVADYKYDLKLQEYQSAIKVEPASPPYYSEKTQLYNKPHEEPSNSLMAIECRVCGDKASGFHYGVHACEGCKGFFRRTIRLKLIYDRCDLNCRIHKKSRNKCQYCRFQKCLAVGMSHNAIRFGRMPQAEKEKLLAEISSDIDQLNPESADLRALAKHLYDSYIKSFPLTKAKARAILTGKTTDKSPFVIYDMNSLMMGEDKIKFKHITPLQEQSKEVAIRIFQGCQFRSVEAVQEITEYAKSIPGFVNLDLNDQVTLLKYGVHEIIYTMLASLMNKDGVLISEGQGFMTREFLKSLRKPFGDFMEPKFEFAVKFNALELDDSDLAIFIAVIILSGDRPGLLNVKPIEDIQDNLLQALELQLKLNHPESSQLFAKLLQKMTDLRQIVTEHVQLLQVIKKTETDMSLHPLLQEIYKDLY

Row | Structure (SMILES) | Efficacy [2] [%] | other results
1 | Cc1cc(SCc2nc(-c3ccc(OC(F)(F)F)cc3)ns2)ccc1OC(C)(C)C(=O)O | 44 | Activity [1]: inactive; Activity [3]: inactive; Activity [4]: inactive; Activity [5]: inactive; Activity [6]: inactive
2 | Cc1ccc(-c2nsc(COc3ccc(OC(C)(C)C(=O)O)c(C)c3)n2)cc1Cl | 75 | 
3 | Cc1cc(SCCc2nc(-c3ccc(C(F)(F)F)cc3)ns2)ccc1OC(C)(C)C(=O)O | 65 | 
4 | Cc1ccc(-c2nsc(COc3ccc(OC(C)(C)C(=O)O)c(C)c3)n2)cc1C | 58 | 
5 | Cc1cc(SCc2nc(-c3ccc(C(F)(F)F)c(F)c3)ns2)ccc1OC(C)(C)C(=O)O | 53 | pEC50 [7]: 8.30
6 | Cc1cc(SCCc2nc(-c3ccc(Cl)c(Cl)c3)ns2)ccc1OC(C)(C)C(=O)O | 71 | pEC50 [7]: 8.05; pEC50 [9]: 6.09
7 | Cc1cc(SCc2cc(-c3ccc(C(F)(F)F)cc3)ns2)ccc1OCC(=O)O | 43 | pEC50 [8]: 5.89
8 | Cc1ccc(-c2nsc(CSc3ccc(OC(C)(C)C(=O)O)c(C)c3)n2)cc1C | 45 | pEC50 [9]: < 5.52
9 | Cc1cc(SCc2nc(-c3ccc(C(F)(F)F)cc3)ns2)ccc1OCC(=O)O | 42 | 
10 | Cc1cc(SCc2nc(-c3ccc(C(F)(F)F)cc3)ns2)ccc1OC(C)(C)C(=O)O | 51 | 
11 | Cc1cc(OCc2nc(-c3ccc(C(F)(F)F)cc3)ns2)ccc1OC(C)(C)C(=O)O | 71 | 
12 | Cc1cc(SCc2cc(-c3ccc(C(F)(F)F)cc3)on2)ccc1OCC(=O)O | 41 | 
13 | Cc1cc(SCc2cc(-c3ccc(C(F)(F)F)cc3)sn2)ccc1OCC(=O)O | 43 | 
14 | Cc1cc(SCc2nsc(-c3ccc(C(F)(F)F)cc3)n2)ccc1OC(C)(C)C(=O)O | 38 | 
15 | Cc1cc(SCc2nc(-c3ccc(OC(F)(F)F)c(Cl)c3)ns2)ccc1OC(C)(C)C(=O)O | 73 | pEC50 [7]: 8.52
16 | Cc1cc(SCc2nc(-c3ccc(OC(F)(F)F)cc3)ns2)ccc1OC1(C(=O)O)CCCC1 | 31 | 
17 | Cc1cc(OCc2nc(-c3ccc(C(F)(F)F)c(F)c3)ns2)ccc1OC(C)(C)C(=O)O | 65 | pEC50 [8]: 7.07
18 | CC(C)(Oc1ccc(SCc2nc(-c3ccc(C(F)(F)F)cc3)ns2)cc1)C(=O)O |  | pEC50 [8]: 6.81; pEC50 [7]: 7.70; pEC50 [9]: < 5.52

Continued, in another order:

Row | Efficacy [2] [%] | Structure (SMILES) | other results
19 | 83 | Cc1cc(OCc2nc(-c3ccc(Cl)c(Cl)c3)ns2)ccc1OC(C)(C)C(=O)O | 
20 | 80 | Cc1cc(OCc2nc(-c3ccc(OC(F)(F)F)cc3)ns2)ccc1OC(C)(C)C(=O)O | 
21 | 38 | Cc1cc(SCc2nc(-c3ccc(Cl)cc3)ns2)ccc1OC(C)(C)C(=O)O | 
22 | 74 | Cc1ccc(-c2nsc(CSc3ccc(OC(C)(C)C(=O)O)c(C)c3)n2)cc1Cl | pEC50 [8]: 7.15; pEC50 [7]: 7.60
23 | 47 | Cc1cc(SCc2nsc(-c3ccc(OC(F)(F)F)cc3)n2)ccc1OC(C)(C)C(=O)O | 
24 | 101 | Cc1cc(OCc2nc(-c3ccc(OC(F)(F)F)c(Cl)c3)ns2)ccc1OC(C)(C)C(=O)O | 
25 | 33 | Cc1cc(SCc2nc(-c3ccc(Cl)cc3Cl)ns2)ccc1OC(C)(C)C(=O)O | 
